Measured values published in patent US11629171B2, “Beta-hairpin peptidomimetics” (POLYPHOR AG, priority 2017, dated 2023).
≈ marks a conversion by molar mass, not a printed value. Where a SMILES comes first, the peptide text is derived from it. Bridges are numbered along the chain shown (N, C = ends). Roman numbers before positions name the chains, in order. [ ]: non-standard residue; d: D form. Tle = CC(C)(C)[C@H](N)C(=O)O; dDab = NCC[C@@H](N)C(=O)O; Dab = NCC[C@H](N)C(=O)O; Dap = NC[C@H](N)C(=O)O; Mpa = O=C(O)CCS

Columns and labels:
Format in all cases: cell-based
[1] = system: human red blood cells (hRBC); test: Hemolysis; conditions: red cells of human, 1 h, 200
Outline: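 Percent lysis of human red cells was derived from OD540 of the supernatant, referenced to 2% Triton X-100, after a 1 h, 37° C incubation of 20% (v/v) cells with 200 μg/mL peptide.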

[2] = system: Klebsiella pneumoniae 968733; conditions: 968733
Outline: (§1)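 CLSI broth microdilution: inoculum ~10^6 CFU/mL in cation-adjusted Mueller-Hinton II broth, with peptide in serial two-fold dilutions plus Polysorbate 80 (0.002% final). MIC (μg/mL) is the lowest concentration without visible growth after 18-20 hours at 35° C.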

[3] = system: Pseudomonas aeruginosa ATCC 27853; conditions: ATCC 27853
Outline: as §1

[4] = system: Enterobacter cloacae 848840; conditions: 848840
Outline: as §1

Escherichia coli 926415 = conditions: 926415
Outline: as §1

[5] = system: Escherichia coli ATCC 25922; conditions: ATCC 25922
Outline: as §1

[6] = system: Acinetobacter baumannii 872842; conditions: 872842
Outline: as §1

[7] = system: Acinetobacter baumannii DSM 30008; conditions: DSM 30008
Outline: as §1

[8] = system: Klebsiella pneumoniae SSI #3010; conditions: SSI #3010
Outline: as §1

With `CC(=O)N[C@@H](CCN)C(=O)N[C@H](C(=O)N[C@H]1CSSC[C@@H](C(=O)N[C@H](C(=O)N[C@@H](C)C(=O)N[C@H](C(=O)N[C@@H](CCC(=O)O)C(N)=O)C(C)C)C(C)(C)C)NC(=O)[C@H](Cc2c[nH]c3ccccc23)NC(=O)[C@H](CO)NC(=O)[C@@H](CCN)NC(=O)[C@H](CCC(=O)N[C@@H](CCN)C(=O)N[C@H](C(=O)N[C@@H](CN)C(=O)N[C@H]2CCNC(=O)[C@H]([C@@H](C)O)NC(=O)[C@H](CCN)NC(=O)[C@H](CCN)NC(=O)[C@H](CC(C)C)NC(=O)[C@@H](CC(C)C)NC(=O)[C@H](CCN)NC2=O)[C@@H](C)O)NC(=O)[C@H](CN)NC(=O)[C@H](Cc2ccc(O)cc2)NC1=O)C(C)C` [Ex. 246] (I: Ac-[Dab]VCY[Dap]E[dDab]SWC[Tle]AVE-NH2 / II: [Dab]T[Dap][Dab][Dab][dL]L[Dab][Dab]T; disulfide I:3-I:10; amide I:6-II:N; lactam II:4-II:C) the “Hemolysis at 200 μg/mL” value [1] was less than 1%, the MIC [2] was 4 µg/mL (≈ 1.52 µM) and the MIC [3] was 0.25 µg/mL (≈ 0.0953 µM). It also gave an MIC [4] of 2 µg/mL (≈ 0.762 µM), an MIC (Escherichia coli 926415) of 2 µg/mL (≈ 0.762 µM) and an MIC [5] of 0.25 µg/mL (≈ 0.0953 µM). It also gave an MIC [6] of 4 µg/mL (≈ 1.52 µM), an MIC [7] of 0.5 µg/mL (≈ 0.191 µM) and an MIC [8] of 0.25 µg/mL (≈ 0.0953 µM).
In the case of `CC(=O)N[C@@H](CCC(=O)O)C(=O)N[C@H](C(=O)N[C@H](C(=O)N[C@@H](Cc1ccc(O)cc1)C(=O)N[C@@H](CN)C(=O)N[C@@H](CCC(=O)N[C@@H](CCN)C(=O)N[C@H](C(=O)N[C@@H](CN)C(=O)N[C@H]1CCNC(=O)[C@H]([C@@H](C)O)NC(=O)[C@H](CCN)NC(=O)[C@H](CCN)NC(=O)[C@H](CC(C)C)NC(=O)[C@@H](CC(C)C)NC(=O)[C@H](CCN)NC1=O)[C@@H](C)O)C(=O)N[C@H](CCN)C(=O)N[C@@H](CCN)C(=O)N[C@@H](Cc1c[nH]c2ccccc12)C(=O)N[C@@H](CO)C(=O)N[C@H](C(=O)N[C@@H](C)C(=O)N[C@@H](CO)C(=O)N[C@@H](CCN)C(N)=O)C(C)(C)C)[C@@H](C)O)C(C)C` [Ex. 247] (I: Ac-EVTY[Dap]E[dDab][Dab]WS[Tle]AS[Dab]-NH2 / II: [Dab]T[Dap][Dab][Dab][dL]L[Dab][Dab]T; amide I:6-II:N; lactam II:4-II:C), the “Hemolysis at 200 μg/mL” value [1] is reported as less than 1%, the MIC [2] is reported as 8 µg/mL (≈ 3.07 µM) and the MIC [3] is reported as 0.25 µg/mL (≈ 0.0958 µM). For the same molecule, the MIC [4] was 0.25 µg/mL (≈ 0.0958 µM), the MIC (Escherichia coli 926415) was 0.5 µg/mL (≈ 0.192 µM) and the MIC [5] was 0.125 µg/mL (≈ 0.0479 µM). For the same molecule, the MIC [6] was 0.5 µg/mL (≈ 0.192 µM), the MIC [7] was 0.125 µg/mL (≈ 0.0479 µM) and the MIC [8] was 0.25 µg/mL (≈ 0.0958 µM).
In the case of `CC(=O)N[C@@H](CCN)C(=O)N[C@H](C(=O)N[C@H](C(=O)N[C@@H](Cc1ccc(O)cc1)C(=O)N[C@@H](CN)C(=O)N[C@@H](CCC(=O)N[C@@H](CCN)C(=O)N[C@H](C(=O)N[C@@H](CN)C(=O)N[C@H]1CCNC(=O)[C@H]([C@@H](C)O)NC(=O)[C@H](CCN)NC(=O)[C@H](CCN)NC(=O)[C@H](CC(C)C)NC(=O)[C@@H](CC(C)C)NC(=O)[C@H](CCN)NC1=O)[C@@H](C)O)C(=O)N[C@H](CCN)C(=O)N[C@@H](CCN)C(=O)N[C@@H](Cc1c[nH]c2ccccc12)C(=O)N[C@@H](CO)C(=O)N[C@H](C(=O)N[C@@H](C)C(=O)N[C@@H](CO)C(=O)N[C@@H](CCC(=O)O)C(N)=O)C(C)(C)C)[C@@H](C)O)C(C)C` [Ex. 248] (I: Ac-[Dab]VTY[Dap]E[dDab][Dab]WS[Tle]ASE-NH2 / II: [Dab]T[Dap][Dab][Dab][dL]L[Dab][Dab]T; amide I:6-II:N; lactam II:4-II:C), the “Hemolysis at 200 μg/mL” value [1] is reported as less than 1%, the MIC [2] is reported as 4 µg/mL (≈ 1.53 µM) and the MIC [3] is reported as 0.25 µg/mL (≈ 0.0958 µM). It also gave an MIC [4] of 4 µg/mL (≈ 1.53 µM), an MIC (Escherichia coli 926415) of 0.25 µg/mL (≈ 0.0958 µM) and an MIC [5] of 0.125 µg/mL (≈ 0.0479 µM). It also gave an MIC [6] of 1 µg/mL (≈ 0.383 µM), an MIC [7] of 0.5 µg/mL (≈ 0.192 µM) and an MIC [8] of 0.125 µg/mL (≈ 0.0479 µM).
For `CC(=O)N[C@@H](CCN)C(=O)N[C@H](C(=O)N[C@H](C(=O)N[C@@H](Cc1ccc(O)cc1)C(=O)N[C@@H](CN)C(=O)N[C@@H](CCC(=O)N[C@@H](CCN)C(=O)N[C@H](C(=O)N[C@@H](CN)C(=O)N[C@H]1CCNC(=O)[C@H]([C@@H](C)O)NC(=O)[C@H](CCN)NC(=O)[C@H](CCN)NC(=O)[C@H](CC(C)C)NC(=O)[C@@H](CC(C)C)NC(=O)[C@H](CCN)NC1=O)[C@@H](C)O)C(=O)N[C@H](CCN)C(=O)N[C@@H](CO)C(=O)N[C@@H](Cc1c[nH]c2ccccc12)C(=O)N[C@@H](CO)C(=O)N[C@H](C(=O)N[C@@H](CO)C(=O)N[C@H](C(=O)N[C@@H](CCC(=O)O)C(N)=O)C(C)C)C(C)(C)C)[C@@H](C)O)C(C)C` [Ex. 249] (I: Ac-[Dab]VTY[Dap]E[dDab]SWS[Tle]SVE-NH2 / II: [Dab]T[Dap][Dab][Dab][dL]L[Dab][Dab]T; amide I:6-II:N; lactam II:4-II:C), the “Hemolysis at 200 μg/mL” value [1] was 2%, the MIC [2] was 0.25 µg/mL (≈ 0.0953 µM) and the MIC [3] was 0.125 µg/mL (≈ 0.0476 µM). For the same molecule, the MIC [4] was 0.125 µg/mL (≈ 0.0476 µM), the MIC (Escherichia coli 926415) was 0.125 µg/mL (≈ 0.0476 µM) and the MIC [5] was 0.03125 µg/mL (≈ 0.0119 µM). The MIC [6] was 0.03125 µg/mL (≈ 0.0119 µM), the MIC [7] was 0.03125 µg/mL (≈ 0.0119 µM) and the MIC [8] was 0.0625 µg/mL (≈ 0.0238 µM).
With `CC(C)C[C@@H]1NC(=O)[C@@H](CC(C)C)NC(=O)[C@H](CCN)NC(=O)[C@@H](NC(=O)[C@H](CN)NC(=O)[C@@H](NC(=O)[C@H](CCN)NC(=O)CC[C@@H]2NC(=O)[C@H](CO)NC(=O)[C@H](Cc3ccc(O)cc3)NC(=O)[C@H]([C@@H](C)O)NC(=O)[C@H](C(C)C)NC(=O)CCSSC[C@@H](C(N)=O)NC(=O)[C@H]([C@@H](C)O)NC(=O)[C@H](C)NC(=O)[C@H](C(C)(C)C)NC(=O)[C@H](CCC(=O)O)NC(=O)[C@H](Cc3c[nH]c4ccccc34)NC(=O)[C@H](CCN)NC(=O)[C@@H](CCN)NC2=O)[C@@H](C)O)CCNC(=O)[C@H]([C@@H](C)O)NC(=O)[C@H](CCN)NC(=O)[C@H](CCN)NC1=O` [Ex. 250] (I: [Mpa]VTYSE[dDab][Dab]WE[Tle]ATC-NH2 / II: [Dab]T[Dap][Dab][Dab][dL]L[Dab][Dab]T; disulfide I:1-I:14; amide I:6-II:N; lactam II:4-II:C) the “Hemolysis at 200 μg/mL” value [1] was 1%, the MIC [2] was 0.125 µg/mL (≈ 0.0484 µM) and the MIC [3] was 0.125 µg/mL (≈ 0.0484 µM). It also gave an MIC [4] of 0.0625 µg/mL (≈ 0.0242 µM), an MIC (Escherichia coli 926415) of 0.0625 µg/mL (≈ 0.0242 µM) and an MIC [5] of 0.03125 µg/mL (≈ 0.0121 µM). For the same molecule, the MIC [6] was 0.03125 µg/mL (≈ 0.0121 µM), the MIC [7] was 0.03125 µg/mL (≈ 0.0121 µM) and the MIC [8] was 0.0625 µg/mL (≈ 0.0242 µM).
For `CC(=O)N[C@H](C(=O)N[C@H]1CSSC[C@@H](C(=O)N[C@@H](CO)C(N)=O)NC(=O)[C@H](C(C)C)NC(=O)[C@H](CO)NC(=O)[C@H](Cc2c[nH]c3ccccc23)NC(=O)[C@H](CCN)NC(=O)[C@@H](CCN)NC(=O)[C@H](CCC(=O)N[C@@H](CCN)C(=O)N[C@H](C(=O)N[C@@H](CN)C(=O)N[C@H]2CCNC(=O)[C@H]([C@@H](C)O)NC(=O)[C@H](CCN)NC(=O)[C@H](CCN)NC(=O)[C@H](CC(C)C)NC(=O)[C@@H](CC(C)C)NC(=O)[C@H](CCN)NC2=O)[C@@H](C)O)NC(=O)[C@H](CO)NC(=O)[C@H](Cc2ccc(O)cc2)NC1=O)C(C)C` [Ex. 251] (I: Ac-VCYSE[dDab][Dab]WSVCS-NH2 / II: [Dab]T[Dap][Dab][Dab][dL]L[Dab][Dab]T; disulfide I:2-I:11; amide I:5-II:N; lactam II:4-II:C), the “Hemolysis at 200 μg/mL” value [1] was 1%, the MIC [2] was 0.0625 µg/mL (≈ 0.0261 µM) and the MIC [3] was 0.0625 µg/mL (≈ 0.0261 µM). The MIC [4] was 0.125 µg/mL (≈ 0.0521 µM), the MIC (Escherichia coli 926415) was 0.125 µg/mL (≈ 0.0521 µM) and the MIC [5] was 0.03125 µg/mL (≈ 0.013 µM). The MIC [6] was 0.03125 µg/mL (≈ 0.013 µM), the MIC [7] was 0.01562 µg/mL (≈ 0.00651 µM) and the MIC [8] was 0.03125 µg/mL (≈ 0.013 µM).
`CC(=O)N[C@H](C(=O)N[C@H]1CSSC[C@@H](C(=O)N[C@@H](CO)C(N)=O)NC(=O)[C@H](C(C)(C)C)NC(=O)[C@H](CO)NC(=O)[C@H](Cc2c[nH]c3ccccc23)NC(=O)[C@H](CCN)NC(=O)[C@@H](CCN)NC(=O)[C@H](CCC(=O)N[C@@H](CCN)C(=O)N[C@H](C(=O)N[C@@H](CN)C(=O)N[C@H]2CCNC(=O)[C@H]([C@@H](C)O)NC(=O)[C@H](CCN)NC(=O)[C@H](CCN)NC(=O)[C@H](CC(C)C)NC(=O)[C@@H](CC(C)C)NC(=O)[C@H](CCN)NC2=O)[C@@H](C)O)NC(=O)[C@H]([C@@H](C)O)NC(=O)[C@H](Cc2ccc(O)cc2)NC1=O)C(C)C` [Ex. 252] (I: Ac-VCYTE[dDab][Dab]WS[Tle]CS-NH2 / II: [Dab]T[Dap][Dab][Dab][dL]L[Dab][Dab]T; disulfide I:2-I:11; amide I:5-II:N; lactam II:4-II:C) was tested, and the “Hemolysis at 200 μg/mL” value [1] was 2%, the MIC [2] was 0.125 µg/mL (≈ 0.0515 µM) and the MIC [3] was 0.0625 µg/mL (≈ 0.0258 µM). It also gave an MIC [4] of 0.125 µg/mL (≈ 0.0515 µM), an MIC (Escherichia coli 926415) of 0.125 µg/mL (≈ 0.0515 µM) and an MIC [5] of 0.0625 µg/mL (≈ 0.0258 µM). The MIC [6] was 0.0625 µg/mL (≈ 0.0258 µM), the MIC [7] was 0.0625 µg/mL (≈ 0.0258 µM) and the MIC [8] was 0.03125 µg/mL (≈ 0.0129 µM).
